Test system: rat liver microsomes (RLMs)
Assay: Michaelis-Menten kinetics (Km) of rivaroxaban in RLMs
Type: in vitro ADME
Details: read-out: Km of rivaroxaban
Procedure: Three samples from each group were incubated, centrifuged, and separated as described earlier. The LC–MS/MS method was used to detect rivaroxaban metabolites. Km was calculated by applying the Michaelis–Menten equation using Prism v. 9.0 (GraphPad Software, MA, USA).

O=C(NC[C@H]1CN(c2ccc(N3CCOCC3=O)cc2)C(=O)O1)c1ccc(Cl)s1 [rivaroxaban, Rivaroxaban]
Km: 17.6 µM
